From patent publication US20260242390A1, “TOTAL SYNTHESES OF PORTIMINE A AND ANALOGUES THEREOF AS SMALL MOLECULE MODULATORS OF NMD3” (priority 2023, published 2026)

Tested on: Jurkat cells
Experiment: Initial SAR: activity of PAL functionalized PTMA analogs
Assay type: cell-based, human
Conditions: in the concentrate range
Text: FIG. 3. Initial SAR studies: Assessing activity of PAL functionalized PTMA analogs. […] (A) PA and Ph-PA show less toxic to healthy PBMCs compared to Jurkat cells. […] (B) Immunoblot of caspase-3 in Jurkat and PBMCs with indicated conditions.
• 1) Portimine A and its functional analogs show stereo-selective acute toxicity in cancer cells (FIG. 1). […] (B) Structure of portimine related analogs: phenyl-portimine A (Ph-PA, 36) and epi-portimine A (ePA, 38). Structure of fully functionalized portimine A-based epimeric probe pair: portimine A-diazirine-alkyne (PA-DA, 35-2) and epi-portimine A-diazirine-alkyne (ePA-DA, 35-1). (C) Cell viability analysis of portimine A and analogs. Jurkat cells were treated with increasing concentrations of portimine A and analogs for 24 hours. All presented data as mean of biological replicated experiments (n=3). […] Jurkat cells were treated with portimine A or analogs for 12 hours at 10 nM. […] Structurally related negative control ePA and PB are non-toxic in all cell types in the current concentrate range. PBMCs (25k per well), Jurkat (10k per well). […] Cell cycle analysis in Jurkat cells (FIG. 2). Jurkat cells were treated with 10 nM of indicated compounds for 24 hours, and propodium iodide was used to identify different stages of cells by flow cytometry. […] (A) PA and Ph-PA show less toxic to healthy PBMCs compared to Jurkat cells. […] (B) Immunoblot of caspase-3 in Jurkat and PBMCs with indicated conditions. […] (A) Pharmacokinetic studies of mouse intraperitoneal (i.p.) and oral (p.o.) administration for portimine (n=3). […] Impact of PA [0.3 or 1 mg/kg intraperitoneally] on MC38 tumor growth in WT mice (n=6). (C) Kaplan-Myer survival curve of WT MC38 tumor-bearing mice (n=6) after treatment with PA as described in (D). Mice were euthanized when tumor area exceeded 2000 mm^3. Statistical analysis was performed using ANOVA analysis followed by multiple comparisons test, * p≤0.05. Treatment condition: Jurkat (60 M per condition); PA-DA/ePA-DA concentration: 0.5 uM, PA or ePA: 5 uM; Incubate with probe with or without competitors (PA, ePA) for 30 min; UV irradiated for 20 min. (0.5 uM PA-DA add a no-UV condition), Standard pulldown & biotin-enrichment and western blot analysis (Elute condition: 2× sample buffer+500 uM biotin, boil for 20 mins); Primary antibody NMD3 (ProteinTech, 1:150), Actin (BioRad, 1:10000). […] Cell lysates were fractionated by sucrose gradient (5-50%) and each fraction were analyzed by western blot. eIF6 levels increase in 60S subunit fraction and decrease in ribosome-free fractions after PA treatment. […]

SMILES | activity of PAL functionalized PTMA analogs
C#CCCC1(CCNC(=O)c2ccc(C3=C[C@@H]4[C@@H]5O[C@]6(CC[C@H](O6)C(C)C[C@@H](O)C5=O)CC(O)C5=NCC[C@@]54CC3)cc2)N=N1 (stereo partly drawn) [PA-DA, portimine A-diazirine-alkyne] | analogous activity to PTMA
C#CCCC1(CCNC(=O)c2ccc(C3=C[C@@H]4[C@@H]5O[C@]6(CC[C@H](O6)C(C)C[C@@H](O)C5=O)C[C@@H](O)C5=NCC[C@@]54CC3)cc2)N=N1 (stereo partly drawn) [ePA-DA, epi-portimine A-diazirine-alkyne] | no activity
C=CC1=C[C@@H]2[C@@H]3O[C@]4(CC[C@H](O4)C(C)C[C@@H](O)C3=O)C[C@@H](O)C3=NCC[C@@]32CC1 (stereo partly drawn) [ePA, epi-portimine A] | no activity
